Laboratory results taken from ChEMBL document CHEMBL4831559, “Antitarget Selectivity and Tolerability of Novel Pyrrolo[2,3-d]pyrimidine RET Inhibitors” (ACS Med Chem Lett, 2021).
Calls of active or inactive are those of the source. The calls are words filed in the database; no cut-off is given here.

Tests used:
[1] = target: T1, Voltage-gated inwardly rectifying potassium channel KCNH2 (Homo sapiens, UniProt Q12809); assay: Inhibition of human ERG expressed in CHO cells by manual patch clamp assay; assay type: cell-based
[2] = Toxicity in nude mouse transfected with mouse KIF5B-RET BaF3 cells assessed as adverse effect at 30 mg/kg, po qd measured after 14 days; assay type: organism-based; conditions: in vivo, 336 h, time 14 day
[3] = fCmax in nude mouse xenografted with KIF5B-RET BaF3 cells xenografted at 3 mg/kg, po qd for 4 days; conditions: in vivo, 96 h
[4] = AUC in BALB/c mouse at 2 mg/kg, iv measured by LC-MS/MS analysis; assay type: ADME, organism-based; set-up: dose 2 mg/kg; conditions: in vivo
[5] = tested on: BaF3; assay: cells; conditions: Mus musculus, BaF3, 48 h
Description: Antiproliferative activity against mouse BaF3 cells assessed as reduction in cell proliferation incubated for 48 hrs by cell proliferation assay

[6] = fAUC in nude mouse xenografted with KIF5B-RET BaF3 cells xenografted at 3 mg/kg, po qd for 4 days; conditions: in vivo, 96 h
[7] = Plasma protein binding in mouse at 5 uM measured after 16 hrs by LC-MS/MS based rapid equilibrium dialysis analysis; assay type: ADME, cell-free; conditions: read-out: PPB (converted)
[8] = tested on: BaF3; assay: Antitumor activity against mouse KIF5B-RET BaF3 cells xenografted in nude mouse assessed as tumor regression at 3 mg/kg, po qd measured after 12 days; conditions: time 12.0 day
[9] = Volume of distribution at steady state in BALB/c mouse at 2 mg/kg, iv measured by LC-MS/MS analysis; assay type: ADME, organism-based; conditions: in vivo, read-out: Vdss
[10] = Half life in BALB/c mouse at 2 mg/kg, iv measured by LC-MS/MS analysis; assay type: ADME, organism-based; conditions: in vivo
[11] = Cmax in BALB/c mouse at 10 mg/kg, po measured by LC-MS/MS analysis; assay type: ADME, organism-based; set-up: route oral, dose 10 mg/kg; conditions: in vivo
[12] = Oral bioavailability in BALB/c mouse at 10 mg/kg measured by LC-MS/MS analysis; assay type: ADME, organism-based; conditions: in vivo
[13] = Half life in BALB/c mouse at 10 mg/kg, po measured by LC-MS/MS analysis; assay type: ADME, organism-based; conditions: in vivo
[14] = Cmax nude mouse xenografted with KIF5B-RET BaF3 cells xenografted at 3 mg/kg, po qd for 14 days; assay type: ADME, organism-based; set-up: route oral, time 14 day, dose 3 mg/kg; conditions: in vivo
[15] = Cmax in BALB/c mouse at 2 mg/kg, iv measured by LC-MS/MS analysis; assay type: ADME, organism-based; set-up: route intravenous, dose 2 mg/kg; conditions: in vivo
[16] = Clearance in BALB/c mouse at 2 mg/kg, iv measured by LC-MS/MS analysis; assay type: ADME, organism-based; conditions: in vivo
[17] = AUC in nude mouse xenografted with KIF5B-RET BaF3 cells xenografted at 3 mg/kg, po qd for 14 days; assay type: ADME, organism-based; set-up: time 14 day, dose 3 mg/kg; conditions: in vivo
[18] = Toxicity in nude mouse transfected with mouse KIF5B-RET BaF3 cells assessed as adverse effect at 10 mg/kg, po qd measured after 14 days; assay type: organism-based; conditions: in vivo, 336 h, time 14 day
[19] = target: T1, Voltage-gated inwardly rectifying potassium channel KCNH2; assay: Displacement of [3H]-dofetilide from human ERG expressed in CHO cell after 90 mins by microbeta liquid scintillation counting method; assay type: cell-based
[20] = AUC in BALB/c mouse at 10 mg/kg, po measured by LC-MS/MS analysis; assay type: ADME, organism-based; set-up: dose 10 mg/kg; conditions: in vivo
[21] = fCmax in nude mouse xenografted with KIF5B-RET BaF3 cells xenografted at 10 mg/kg, po qd for 14 days; assay type: ADME, organism-based; conditions: in vivo, 336 h, time 14 day
[22] = Cmax in nude mouse xenografted with KIF5B-RET BaF3 cells xenografted at 10 mg/kg, po qd for 14 days; assay type: ADME, organism-based; set-up: route oral, time 14 day, dose 10 mg/kg; conditions: in vivo
[23] = fAUC in nude mouse xenografted with KIF5B-RET BaF3 cells xenografted at 10 mg/kg, po qd for 14 days; assay type: ADME, organism-based; conditions: in vivo, 336 h, time 14 day
[24] = AUC in nude mouse xenografted with KIF5B-RET BaF3 cells xenografted at 10 mg/kg, po qd for 14 days; assay type: ADME, organism-based; set-up: time 14 day, dose 10 mg/kg; conditions: in vivo
[25] = tested on: Mus musculus; assay: Antitumor activity against mouse KIF5B-RET BaF3 cells xenografted in nude mouse assessed as tumor regression at 10 mg/kg, po qd measured after 16 days; assay type: functional, organism-based; conditions: time 16.0 day
[26] = tested on: BaF3; assay: Antitumor activity against mouse KIF5B-RET BaF3 cells xenografted in nude mouse assessed as tumor regression at 60 mg/kg, po qd measured after 14 days; assay type: functional, organism-based; conditions: time 14.0 day
[27] = AUC in nude mouse xenografted with KIF5B-RET BaF3 cells xenografted at 60 mg/kg, po qd for 14 days; assay type: ADME, organism-based; set-up: time 14 day, dose 60 mg/kg; conditions: in vivo
[28] = Cmax in nude mouse xenografted with KIF5B-RET BaF3 cells xenografted at 60 mg/kg, po qd for 14 days; assay type: ADME, organism-based; set-up: route oral, time 14 day, dose 60 mg/kg; conditions: in vivo
[29] = fCmax in nude mouse xenografted with KIF5B-RET BaF3 cells xenografted at 60 mg/kg, po qd for 14 days; assay type: ADME, organism-based; conditions: in vivo, 336 h, time 14 day
[30] = Toxicity in nude mouse transfected with mouse KIF5B-RET BaF3 cells assessed as body weight loss at 10 to 60 mg/kg, po qd measured after 14 days; assay type: organism-based; conditions: in vivo, 336 h, dose 10-60 mg/kg, time 14 day
[31] = target: Proto-oncogene tyrosine-protein kinase receptor Ret (Mus musculus) (UniProt P35546); assay: In vivo inhibition of RET phosphorylation in mouse KIF5B-RET BaF3 cells transfected in nude mouse […] at 60 mg/kg, po qd measured after 5 hrs; assay type: functional, organism-based
[32] = fAUC in nude mouse xenografted with KIF5B-RET BaF3 cells xenografted at 60 mg/kg, po qd for 14 days; assay type: ADME, organism-based; conditions: in vivo, 336 h, time 14 day
[33] = Toxicity in nude mouse transfected with mouse KIF5B-RET BaF3 cells assessed as adverse effect at 10 to 60 mg/kg, po qd measured after 14 days; assay type: organism-based; conditions: in vivo, 336 h, dose 10-60 mg/kg, time 14 day
[34] = target: Bcr/Abl fusion protein (Homo sapiens, UniProt P00519); assay: Inhibition of BCR-ABL (unknown origin) expressed in mouse BaF3 cells assessed as reduction in cell proliferation incubated for 48 hrs by cell proliferation assay; assay type: cell-based
[35] = Half life in BALB/c mouse at 3.4 mg/kg, iv measured by LC-MS/MS analysis; assay type: ADME, organism-based; conditions: in vivo
[36] = Oral bioavailability in BALB/c mouse at 13.5 mg/kg measured by LC-MS/MS analysis; assay type: ADME, organism-based; conditions: in vivo
[37] = Clearance in BALB/c mouse at 3.4 mg/kg, iv measured by LC-MS/MS analysis; assay type: ADME, organism-based; conditions: in vivo
[38] = Half life in BALB/c mouse at 13.5 mg/kg, po measured by LC-MS/MS analysis; assay type: ADME, organism-based; conditions: in vivo
[39] = Cmax in BALB/c mouse at 13.5 mg/kg, po measured by LC-MS/MS analysis; assay type: ADME, organism-based; set-up: route oral, dose 13.5 mg/kg; conditions: in vivo
[40] = AUC in BALB/c mouse at 3.4 mg/kg, iv measured by LC-MS/MS analysis; assay type: ADME, organism-based; set-up: dose 3.4 mg/kg; conditions: in vivo
[41] = Cmax in BALB/c mouse at 3.4 mg/kg, iv measured by LC-MS/MS analysis; assay type: ADME, organism-based; set-up: route intravenous, dose 3.4 mg/kg; conditions: in vivo
[42] = AUC in BALB/c mouse at 13.5 mg/kg, po measured by LC-MS/MS analysis; assay type: ADME, organism-based; set-up: dose 13.5 mg/kg; conditions: in vivo
[43] = target: Proto-oncogene tyrosine-protein kinase receptor Ret (Homo sapiens, UniProt P07949); assay: Inhibition of RET (658 to 1072) (unknown origin) by HTRF assay
[44] = Volume of distribution at steady state in BALB/c mouse at 3.4 mg/kg, iv measured by LC-MS/MS analysis; assay type: ADME, organism-based; conditions: in vivo, read-out: Vdss
[45] = tested on: BaF3; assay: Antitumor activity against mouse KIF5B-RET BaF3 cells xenografted in nude mouse assessed as tumor regression at 1 to 10 mg/kg, po qd measured after 16 days; assay type: functional, organism-based; conditions: dose 1-10 mg/kg, time 16.0 day
[46] = tested on: BaF3; conditions: Mus musculus, dose 10.0 mg/kg, time 21.0 day
[47] = tested on: Mus musculus; assay: Antitumor activity against mouse KIF5B-RET BaF3 cells xenografted in nude mouse assessed as tumor regression at 30 mg/kg, po qd measured after 16 days; assay type: functional, organism-based; conditions: time 16.0 day

T1 sequence (Q12809 whole entry): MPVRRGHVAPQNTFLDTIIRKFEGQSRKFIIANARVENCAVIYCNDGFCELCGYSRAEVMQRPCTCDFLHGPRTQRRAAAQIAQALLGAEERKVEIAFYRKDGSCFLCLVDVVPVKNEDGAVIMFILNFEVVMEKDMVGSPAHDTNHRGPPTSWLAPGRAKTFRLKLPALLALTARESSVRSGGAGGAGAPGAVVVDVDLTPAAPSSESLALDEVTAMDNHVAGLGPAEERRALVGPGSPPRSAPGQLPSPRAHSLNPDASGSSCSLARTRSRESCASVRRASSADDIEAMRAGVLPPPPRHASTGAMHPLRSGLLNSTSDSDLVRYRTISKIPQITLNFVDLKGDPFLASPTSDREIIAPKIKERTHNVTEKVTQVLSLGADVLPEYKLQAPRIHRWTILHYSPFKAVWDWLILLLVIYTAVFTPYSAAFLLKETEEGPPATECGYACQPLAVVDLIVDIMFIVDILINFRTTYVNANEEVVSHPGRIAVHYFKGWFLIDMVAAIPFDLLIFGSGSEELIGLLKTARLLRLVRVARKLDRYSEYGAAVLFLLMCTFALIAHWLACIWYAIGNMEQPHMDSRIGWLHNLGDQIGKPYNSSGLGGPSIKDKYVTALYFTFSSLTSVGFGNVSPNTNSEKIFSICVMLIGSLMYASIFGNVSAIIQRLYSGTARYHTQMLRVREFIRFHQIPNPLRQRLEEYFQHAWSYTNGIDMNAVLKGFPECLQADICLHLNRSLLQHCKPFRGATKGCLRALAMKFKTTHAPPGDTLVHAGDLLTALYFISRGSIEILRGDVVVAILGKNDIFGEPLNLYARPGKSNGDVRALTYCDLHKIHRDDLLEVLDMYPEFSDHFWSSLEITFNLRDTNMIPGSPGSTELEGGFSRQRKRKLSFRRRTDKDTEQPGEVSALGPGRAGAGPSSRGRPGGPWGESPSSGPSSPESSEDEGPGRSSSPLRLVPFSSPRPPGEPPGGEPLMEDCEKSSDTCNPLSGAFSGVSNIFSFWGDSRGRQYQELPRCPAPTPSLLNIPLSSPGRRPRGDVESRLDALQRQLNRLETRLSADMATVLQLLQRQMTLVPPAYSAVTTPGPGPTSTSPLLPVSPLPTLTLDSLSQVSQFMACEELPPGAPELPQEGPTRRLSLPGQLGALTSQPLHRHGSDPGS
Bcr/Abl fusion protein, sequence (P00519 whole entry, the tested form may be a part): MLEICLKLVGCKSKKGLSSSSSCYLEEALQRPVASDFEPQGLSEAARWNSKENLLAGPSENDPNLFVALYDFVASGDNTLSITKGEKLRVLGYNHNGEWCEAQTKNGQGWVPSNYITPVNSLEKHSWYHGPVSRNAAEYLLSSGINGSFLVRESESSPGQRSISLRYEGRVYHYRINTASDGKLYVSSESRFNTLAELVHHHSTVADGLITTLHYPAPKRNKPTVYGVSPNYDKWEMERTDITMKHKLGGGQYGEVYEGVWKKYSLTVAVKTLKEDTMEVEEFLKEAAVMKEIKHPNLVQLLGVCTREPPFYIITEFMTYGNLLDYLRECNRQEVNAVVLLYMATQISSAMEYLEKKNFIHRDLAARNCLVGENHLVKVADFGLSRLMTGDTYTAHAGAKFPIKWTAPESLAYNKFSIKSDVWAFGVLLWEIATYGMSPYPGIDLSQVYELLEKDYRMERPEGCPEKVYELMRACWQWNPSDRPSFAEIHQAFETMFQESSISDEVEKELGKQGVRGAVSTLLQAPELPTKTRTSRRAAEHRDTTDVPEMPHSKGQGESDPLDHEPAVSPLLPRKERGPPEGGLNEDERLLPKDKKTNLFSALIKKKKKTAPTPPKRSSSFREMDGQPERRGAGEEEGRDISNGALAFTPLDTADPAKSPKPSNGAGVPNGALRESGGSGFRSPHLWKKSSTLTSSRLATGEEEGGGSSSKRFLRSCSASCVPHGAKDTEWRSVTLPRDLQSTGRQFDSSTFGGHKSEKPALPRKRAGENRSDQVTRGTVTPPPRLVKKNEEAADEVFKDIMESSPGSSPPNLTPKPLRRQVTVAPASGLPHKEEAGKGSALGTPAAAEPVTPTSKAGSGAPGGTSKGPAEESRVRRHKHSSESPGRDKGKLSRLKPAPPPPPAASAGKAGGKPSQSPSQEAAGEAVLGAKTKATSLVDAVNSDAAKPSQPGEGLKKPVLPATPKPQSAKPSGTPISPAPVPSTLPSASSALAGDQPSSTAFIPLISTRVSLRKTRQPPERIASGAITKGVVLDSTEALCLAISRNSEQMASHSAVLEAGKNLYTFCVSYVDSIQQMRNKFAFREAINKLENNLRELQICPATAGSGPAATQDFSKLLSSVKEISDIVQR
Bcr/Abl fusion protein, sequence (P11274 whole entry, further chain, the tested form may be a part): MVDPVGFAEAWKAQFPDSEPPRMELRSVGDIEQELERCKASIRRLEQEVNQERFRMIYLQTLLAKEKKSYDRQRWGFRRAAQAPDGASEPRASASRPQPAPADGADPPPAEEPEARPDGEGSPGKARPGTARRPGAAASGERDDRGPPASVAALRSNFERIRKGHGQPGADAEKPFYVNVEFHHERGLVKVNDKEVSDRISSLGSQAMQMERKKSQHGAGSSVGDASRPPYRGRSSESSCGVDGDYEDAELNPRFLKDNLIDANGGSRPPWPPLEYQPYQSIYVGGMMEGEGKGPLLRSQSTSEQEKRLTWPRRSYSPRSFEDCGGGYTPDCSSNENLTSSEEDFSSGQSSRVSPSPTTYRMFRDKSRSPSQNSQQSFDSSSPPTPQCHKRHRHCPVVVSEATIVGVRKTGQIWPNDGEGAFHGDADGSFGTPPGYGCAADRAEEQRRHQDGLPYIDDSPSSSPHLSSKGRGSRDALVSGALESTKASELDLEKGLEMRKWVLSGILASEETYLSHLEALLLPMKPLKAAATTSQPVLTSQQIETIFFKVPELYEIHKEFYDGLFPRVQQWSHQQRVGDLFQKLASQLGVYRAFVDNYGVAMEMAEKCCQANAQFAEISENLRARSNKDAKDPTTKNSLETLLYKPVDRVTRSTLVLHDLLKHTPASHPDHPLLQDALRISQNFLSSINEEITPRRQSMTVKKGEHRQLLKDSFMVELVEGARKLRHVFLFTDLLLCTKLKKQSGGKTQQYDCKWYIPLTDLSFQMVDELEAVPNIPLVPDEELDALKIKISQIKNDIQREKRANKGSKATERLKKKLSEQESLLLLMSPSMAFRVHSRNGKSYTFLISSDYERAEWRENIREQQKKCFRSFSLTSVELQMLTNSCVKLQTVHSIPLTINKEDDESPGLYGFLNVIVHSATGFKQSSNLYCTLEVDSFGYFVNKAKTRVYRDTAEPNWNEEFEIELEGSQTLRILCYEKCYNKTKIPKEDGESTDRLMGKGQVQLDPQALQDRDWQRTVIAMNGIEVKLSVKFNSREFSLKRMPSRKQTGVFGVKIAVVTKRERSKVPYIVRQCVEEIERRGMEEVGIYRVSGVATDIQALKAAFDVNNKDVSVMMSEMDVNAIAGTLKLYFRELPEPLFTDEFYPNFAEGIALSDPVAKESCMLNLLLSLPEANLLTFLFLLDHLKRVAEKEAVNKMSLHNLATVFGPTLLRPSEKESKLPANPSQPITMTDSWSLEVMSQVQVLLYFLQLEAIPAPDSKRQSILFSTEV
Proto-oncogene tyrosine-protein kinase receptor Ret, sequence (P07949 whole entry): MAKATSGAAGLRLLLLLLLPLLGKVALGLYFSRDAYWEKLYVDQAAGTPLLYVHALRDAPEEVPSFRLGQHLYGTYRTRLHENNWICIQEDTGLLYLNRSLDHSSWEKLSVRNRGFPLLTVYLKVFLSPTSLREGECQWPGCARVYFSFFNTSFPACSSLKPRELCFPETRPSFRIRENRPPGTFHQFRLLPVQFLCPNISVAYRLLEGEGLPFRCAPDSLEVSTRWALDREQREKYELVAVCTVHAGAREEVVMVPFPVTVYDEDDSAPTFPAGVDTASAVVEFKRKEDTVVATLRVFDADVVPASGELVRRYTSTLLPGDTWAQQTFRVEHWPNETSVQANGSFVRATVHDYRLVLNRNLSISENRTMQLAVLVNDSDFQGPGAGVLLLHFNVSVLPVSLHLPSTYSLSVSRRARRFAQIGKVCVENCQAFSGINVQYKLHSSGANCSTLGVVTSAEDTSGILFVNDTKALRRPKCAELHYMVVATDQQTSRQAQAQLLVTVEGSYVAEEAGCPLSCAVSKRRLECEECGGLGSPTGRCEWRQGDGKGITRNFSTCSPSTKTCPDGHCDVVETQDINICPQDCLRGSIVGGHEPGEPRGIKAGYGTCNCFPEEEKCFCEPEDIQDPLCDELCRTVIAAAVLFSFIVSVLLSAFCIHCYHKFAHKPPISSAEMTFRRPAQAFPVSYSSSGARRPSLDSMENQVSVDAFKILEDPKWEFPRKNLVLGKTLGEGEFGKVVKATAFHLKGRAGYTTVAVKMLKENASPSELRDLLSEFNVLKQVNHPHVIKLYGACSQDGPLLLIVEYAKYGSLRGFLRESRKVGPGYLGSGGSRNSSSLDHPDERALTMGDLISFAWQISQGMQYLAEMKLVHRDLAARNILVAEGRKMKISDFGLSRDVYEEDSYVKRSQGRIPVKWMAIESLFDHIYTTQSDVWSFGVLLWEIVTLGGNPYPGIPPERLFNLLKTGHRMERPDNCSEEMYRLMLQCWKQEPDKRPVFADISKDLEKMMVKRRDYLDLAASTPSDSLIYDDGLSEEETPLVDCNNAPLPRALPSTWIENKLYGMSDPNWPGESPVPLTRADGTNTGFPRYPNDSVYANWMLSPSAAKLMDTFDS

SMILES	AUC [4]	IC50 [5]	fraction unbound at 16 h, 5 µM [7]	Vd [9]	half-life [10]	Cmax [11]	bioavailability [12]	half-life [13]	Cmax [15]	clearance [16]	AUC [20]	further results
COC(=O)NC12CCC(n3cc(-c4ccc(Cl)c(N)c4)c4c(N)ncnc43)(CC1)CC2	54 µM·h	2.6 µM	0.0042	1.1 L/kg	10 h	9.5 µM	58%	22 h	5.6 µM	1.4 mL/min/kg	160 µM·h	IC50 [1]: 3 µM; Activity [2]: Non-Toxic; fCmax [3]: 0.031 µM; fAUC [6]: 0.45 µM·h; Activity [8]: Active; Cmax [14]: 7.4 µM; AUC at 336 h [17]: 106 µM·h; Activity [18]: Non-Toxic; IC50 [19]: 9.9 µM
CC(=O)N1CCN([C@H]2C[C@@H](n3cc(-c4ccccc4O)c4c(N)ncnc43)C2)CC1		> 10 µM										
COC(=O)N[C@H]1CC[C@@H](n2cc(-c3ccc(Cl)c(N)c3)c3c(N)ncnc32)CC1	41 µM·h	4.6 µM	0.031	0.37 L/kg	3 h	10 µM	60%	3.7 h	14 µM	1.9 mL/min/kg	120 µM·h	IC50 [1]: 5.3 µM; fCmax [21]: 0.26 µM; Cmax [22]: 8.3 µM; fAUC [23]: 1.6 µM·h; AUC at 336 h [24]: 50 µM·h; Activity [25]: Active; Activity [18]: Non-Toxic; IC50 [19]: 25 µM
COc1cc(-c2cn([C@H]3C[C@@H](N4CCN(C(C)=O)CC4)C3)c3ncnc(N)c23)ccc1Cl		> 10 µM										
Nc1ncnc2c1c(-c1cccc(O)c1)cn2C1CCCC1		1.6 µM										
CC(=O)N1CCN([C@H]2C[C@@H](n3cc(-c4ccc(Cl)c(N)c4)c4c(N)ncnc43)C2)CC1	5 µM·h	4.6 µM	0.356	1.3 L/kg	1.2 h	3.8 µM	48%	2.4 h	5.1 µM	15 mL/min/kg	12 µM·h	Activity [26]: Active; AUC at 336 h [27]: 115 µM·h; Cmax [28]: 19 µM; fCmax [29]: 6.8 µM; Activity [30]: Non-Toxic; inhibition [31]: Active; fAUC [32]: 41 µM·h; Activity [33]: Non-Toxic
Nc1ncnc2c1c(-c1cccc(O)c1)cn2[C@H]1C[C@@H](CO)C1												IC50 [34]: 0.043 µM
CC(=O)N1CCN([C@H]2C[C@@H](n3cc(-c4cc(O)ccc4F)c4c(N)ncnc43)C2)CC1												half-life [35]: 1.6 h; bioavailability [36]: 4%; clearance [37]: 65 mL/min/kg; half-life [38]: 1.3 h; Cmax [39]: 0.2 µM; AUC [40]: 2 µM·h; IC50 [34]: 4.2 µM; Cmax [41]: 6.4 µM; AUC [42]: 0.3 µM·h; IC50 [43]: 0.00054 µM; Vd [44]: 1.4 L/kg
COC(=O)NC12CCC(n3cc(-c4cc(N)c(Cl)cc4F)c4c(N)ncnc43)(CC1)CC2	40 µM·h	4.1 µM	0.0065	2.4 L/kg	16 h	7.9 µM	78%	19 h	3.5 µM	1.8 mL/min/kg	160 µM·h	IC50 [1]: 6 µM; Activity [2]: Non-Toxic; fCmax [21]: 0.055 µM; Cmax [22]: 8.4 µM; fAUC [23]: 0.9 µM·h; AUC at 336 h [24]: 136 µM·h; Activity [25]: Active; Activity [45]: Active; inhibition [46]: Active; IC50 [19]: > 30 µM; Activity [47]: Active
CC(=O)N1CCN([C@H]2C[C@@H](n3cc(-c4cccc(O)c4)c4c(N)ncnc43)C2)CC1		> 10 µM										
CC(=O)N1CCN([C@H]2C[C@@H](n3cc(-c4ccc(Cl)c(O)c4)c4c(N)ncnc43)C2)CC1		3.7 µM										
CC(=O)N1CCN([C@H]2C[C@@H](n3cc(-c4ccc(O)cc4)c4c(N)ncnc43)C2)CC1		> 10 µM										
